Series [1] is described as follows: Low-temperature storage stability at 4° C. (appearance). It counts as physicochemical. The method, then:
(§1) The pH stability of a system was characterized by measuring turbidity and particle size. A 1% w/v LAE aqueous solution and an HPβCD/LAE clathrate aqueous solution (4% w/v) containing a same amount of 1% w/v LAE were prepared, respectively. The pH values of the LAE aqueous solution and the HPβCD/LAE clathrate aqueous solution were adjusted to 1, 3, 5, 7, 9, and 11 with 0.01 mol/L to 0.5 mol/L of sodium hydroxide and hydrochloric acid solutions, respectively. After allowing to stand at room temperature for 24 h, the absorbance at 600 nm of the LAE aqueous solutions and the HPβCD/LAE clathrate aqueous solutions with different pH values were measured with a UV spectrophotometer. The absorbance was used to represent a turbidity of the solution, while pure water was used as a reference. The particle size of the solution was measured with a ZS90 nanometer particle size analyzer. Photographs were taken to record the changes of the above solutions stored at 4° C. for 0 h, 24 h, 7 d, and 35 d to characterize the low-temperature storage stability of the samples.

The subject of series [2] is Staphylococcus aureus. The series is described as follows: Antibacterial activity by Oxford cup method with xanthan gum as interfering substance. It counts as cell-based. To be noted: 0.20% LAE, xanthan gum present, compared with no xanthan gum. The method, then:
In order to test the performance of the HPβCD LAE clathrate prepared in Example 1, the antibacterial activity of the HPβCD/LAE clathrate in the presence of an anionic polysaccharide (xanthan gum) as an interfering substance was measured by an Oxford cup method. Groups A to G were set up, and each group had 3 parallel experiments. 15 mL of nutrient agar was added to each petri dish, cooled and solidified, and 100 μL of a Staphylococcus aureus solution (10^5 CFU/mL) was spread on each petri dish. […] Each group was placed with an Oxford cup, and 130 μL of an antibacterial solution was added to each Oxford cup; each of the Oxford cups was diffused in a 4° C. refrigerator for 24 h, cultured at 37° C. for 24 h, and an inhibition zone diameter (IZD) was measured with a micrometer. The mass percentages of the antibacterial solution added in Groups A to G were as follows: A: 0.20% LAE-no xanthan gum; B: 0.20% LAE; C: 0.08% HPβCD/LAE clathrate-0.02% LAE; D: 0.16% HPβCD/LAE clathrate-0.04% LAE; E: 0.40% HPβCD/LAE clathrate-0.10% LAE; F: 0.60% HPβCD/LAE clathrate-0.15% LAE; and G: 0.80% HPβCD/LAE clathrate-0.20% LAE. The […] was the raw material in Example 1.

For series [3] the following is noted: pH range; cited from earlier work.
A short description of series [4]: pH stability by turbidity and particle size. The settings on record: aqueous solution containing 1% w/v LAE, pH 1 to 11, room temperature 24 h. The format is physicochemical. The method, then: as §1
The conditions of series [5]: in water at room temperature; cited from earlier work.

For `CCCCCCCCCCCC(=O)N[C@@H](CCCN=C(N)N)C(=O)OCC.Cl` [LAE, ethyl lauroyl arginate hydrochloride], the low-temperature storage appearance entry is listed as “eventually fully precipitated” in series [1] (prolonged storage at low temperature (4° C., up to 35 d)) and “except for the solution of pH=7, all other LAE solutions had obvious crystallization” in series [1] (storage at low temperature (4° C.) for 24 h, pH 1 to 11). Besides, in series [2], the inhibition zone entry is listed as “significantly reduced the inhibition zone of LAE”. The chemical stability result in series [3] is on record as “desirable chemical stability at a pH value of 3 to 7”. The “pH stability (turbidity, particle size)” value in series [4] is on record as “obviously aggregated outside the pH value of 3 to 7”. In addition, in series [5], the solubility entry is on record as “less than 2%”.
